Some results are limits rather than exact numbers.

Common to all, as to assay type: biochemical
One assay addresses T1, human GST-CLK1 (129-end) (Homo sapiens, UniProt P49759).
T1 construct: purified human GST-CLK1 (129-end, Signalchem) enzyme; GST; purchased Signalchem
Kind of assay: GST-CLK1 enzyme inhibition, ADP-Glo kinase assay. Particulars: ATP 10 uM. A digest of the protocol: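 ADP formation was read by ADP-Glo luminescence after 1 h at 25° C with 3 ng human GST-CLK1 (129-end), substrate and 10 uM ATP in Tris pH 7.4 buffer containing MgCl2, BSA and DTT. Inhibition relative to untreated solvent control gave IC50 (nM), run in triplicate.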

For another assay, the target named is LRRK2 (G2019S) (Homo sapiens, UniProt Q5S007, G2019S). The experiment in a line: LRRK2 G2019S enzyme inhibition, ADP-Glo kinase assay. Set-up: purchased SignalChem L10-12GG. An outline of the steps:
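Activity read as ADP-Glo luminescence, normalized to untreated solvent control, with IC50 (nM) fitted over 12 final compound levels (top 50 μM). Reaction: 2 h, 25° C, human LRRK2 G2019S 16 ng, ATP 25 μM, substrate 0.2 μg, in Tris-HCl pH 7.4 with MgCl2, BSA and DTT.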

In assay [1] the target is T2, human GST-DYRK1A (full length) (Homo sapiens, UniProt Q13627).
T2 construct: purified human GST-DYRK1A (full length, Thermo scientifics) enzyme; GST; purchased Thermo scientifics
The experiment in a line: GST-DYRK1A enzyme inhibition, ADP-Glo kinase assay. Particulars: read-out: DYRK1 IC50. A digest of the protocol: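 ADP-Glo luminescence quantified kinase activity after a 1 h, 25° C reaction of 10 ng full-length GST-tagged human DYRK1A, substrate and 10 uM ATP in Tris-HCl buffer pH 7.4 with MgCl2, BSA and DTT. Triplicate IC50 values (nM) calculated relative to untreated solvent control.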

A further assay deals with LRRK2 (Homo sapiens, UniProt Q5S007). The experiment in a line: LRRK2 enzyme inhibition, ADP-Glo kinase assay. Set-up: purchased Invitrogen PR8604B. The protocol: In order to evaluate the inhibitory activity of the compounds according to the present invention on LRRK2, LRRK2 (G2019S), DYRK1, CLK1 and TTK kinases, the following experiment was performed.
Example compounds were reacted with the purified human LRRK2 (Invitrogen #PR8604B) enzyme to evaluate the enzyme inhibitory ability as follows. The reaction buffer was used as the composition of 40 mM Tris-HCl pH7.4, 20 mM MgCl2, 0.5 mg/ml BSA and 50 μM DTT, and the reaction of all test materials was performed on the reaction buffer. The compound was diluted with 10 mM DMSO stock in 12 steps by a serial dilution method, and the enzyme activity was measured at the final compound concentrations of 50, 10, 2, 0.4, 0.08, 0.016, 0.0032, 0.00064, 0.000128, 0.0000256, 0.00000512 and 0.000001024 μM. In the test, the human LRRK2 (25 ng) enzyme was reacted with the purified ATP (10 μM) and an enzyme substrate ([…]) at 25° C. for 2 hours, and then the enzyme activity was identified using the in vitro ADP-Glo™ kinase assay (promega). The enzyme activity reaction liquid, an ADP-Glo reaction liquid and an enzyme potency detection solution were reacted in a ratio of 2:2:1, and the degree of inhibition of enzyme activity was measured by Luminescence. The degree of inhibition of enzyme activity according to the treatment concentrations of the respective compounds was calculated based on the fluorescence of the enzyme activity of a solvent control group that was not treated with the compound, where the concentration of each compound to inhibit enzyme activity inhibition by 50% was determined as an IC50 (nM) value and obtained using Prism (Version 5.01, GraphPad) software.
In the table below, the following designations were used for the evaluation of enzyme inhibitory ability.

T1 sequence (P49759 129-484 limits assumed): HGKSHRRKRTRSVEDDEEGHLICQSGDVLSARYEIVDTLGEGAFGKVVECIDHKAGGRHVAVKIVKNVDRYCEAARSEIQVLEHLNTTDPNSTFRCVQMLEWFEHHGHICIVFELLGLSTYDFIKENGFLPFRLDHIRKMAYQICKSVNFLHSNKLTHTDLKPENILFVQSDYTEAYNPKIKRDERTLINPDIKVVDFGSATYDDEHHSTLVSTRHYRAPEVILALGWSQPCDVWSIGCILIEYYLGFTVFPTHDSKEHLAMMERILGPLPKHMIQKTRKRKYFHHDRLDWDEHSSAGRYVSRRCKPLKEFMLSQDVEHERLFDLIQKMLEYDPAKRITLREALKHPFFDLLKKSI
Sequence of LRRK2 (G2019S) (Q5S007 970-2527 G2019S limits assumed): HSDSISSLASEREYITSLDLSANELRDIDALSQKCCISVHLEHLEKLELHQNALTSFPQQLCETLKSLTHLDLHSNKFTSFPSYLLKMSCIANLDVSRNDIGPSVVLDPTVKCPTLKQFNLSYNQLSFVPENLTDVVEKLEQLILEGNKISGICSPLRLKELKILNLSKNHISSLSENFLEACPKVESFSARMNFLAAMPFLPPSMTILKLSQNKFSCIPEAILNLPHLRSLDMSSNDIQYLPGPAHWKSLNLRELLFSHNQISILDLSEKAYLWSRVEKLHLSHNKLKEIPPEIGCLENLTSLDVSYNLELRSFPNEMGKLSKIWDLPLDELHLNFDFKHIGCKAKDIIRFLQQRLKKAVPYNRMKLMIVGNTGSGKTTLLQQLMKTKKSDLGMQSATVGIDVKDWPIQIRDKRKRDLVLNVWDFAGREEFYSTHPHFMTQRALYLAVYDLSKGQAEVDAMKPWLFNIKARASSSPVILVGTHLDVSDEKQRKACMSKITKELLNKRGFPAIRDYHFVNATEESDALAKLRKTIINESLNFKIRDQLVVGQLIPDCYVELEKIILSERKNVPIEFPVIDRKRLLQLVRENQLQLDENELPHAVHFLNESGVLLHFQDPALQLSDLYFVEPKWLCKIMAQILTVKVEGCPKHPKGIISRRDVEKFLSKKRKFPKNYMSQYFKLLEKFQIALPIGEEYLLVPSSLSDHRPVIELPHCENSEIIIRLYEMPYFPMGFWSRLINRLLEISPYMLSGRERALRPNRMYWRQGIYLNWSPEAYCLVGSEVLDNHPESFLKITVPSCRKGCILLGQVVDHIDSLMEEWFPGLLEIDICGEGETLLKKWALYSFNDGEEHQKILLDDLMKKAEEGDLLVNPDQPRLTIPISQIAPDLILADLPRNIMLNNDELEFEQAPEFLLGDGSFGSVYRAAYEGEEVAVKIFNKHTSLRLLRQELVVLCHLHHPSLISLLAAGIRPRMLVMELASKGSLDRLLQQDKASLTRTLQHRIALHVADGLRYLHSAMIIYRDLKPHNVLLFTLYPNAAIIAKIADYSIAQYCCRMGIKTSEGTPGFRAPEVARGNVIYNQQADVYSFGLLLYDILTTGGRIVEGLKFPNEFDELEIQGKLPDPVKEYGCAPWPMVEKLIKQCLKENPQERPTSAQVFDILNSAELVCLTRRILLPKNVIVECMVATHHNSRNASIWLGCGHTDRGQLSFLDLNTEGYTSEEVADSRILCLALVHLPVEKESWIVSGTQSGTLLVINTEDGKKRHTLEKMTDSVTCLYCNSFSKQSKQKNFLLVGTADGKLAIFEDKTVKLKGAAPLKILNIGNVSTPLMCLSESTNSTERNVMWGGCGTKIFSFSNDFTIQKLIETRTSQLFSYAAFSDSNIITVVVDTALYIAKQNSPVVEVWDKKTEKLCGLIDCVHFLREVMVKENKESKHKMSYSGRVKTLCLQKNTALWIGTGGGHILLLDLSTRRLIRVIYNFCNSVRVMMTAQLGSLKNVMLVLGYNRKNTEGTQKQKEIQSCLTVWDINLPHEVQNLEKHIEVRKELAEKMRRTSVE
Sequence of LRRK2 (Q5S007 970-2527 limits assumed): as the sequence (Q5S007 970-2527 G2019S limits assumed) above, with S1050G counted along it

Turning to `CNc1cc(Nc2ccc(S(C)(=O)=O)cc2OC)nc2[nH]ccc12` [Example 25, N^6-(2-methoxy-4-(methylsulfonyl)phenyl)-N^4-methyl-1H-pyrrolo[2,3-b]pyridine-4,6-diamine], the 50% inhibitory concentration (IC50) was 301 to 1000 nM against human GST-CLK1 (129-end), under 100 nM against LRRK2 (G2019S), 301 to 1000 nM in assay [1] and 101 to 300 nM against LRRK2.

For the compound `CCNc1cc(Nc2ccc(S(C)(=O)=O)cc2OC)nc2[nH]ccc12` [Example 26, N^4-ethyl-N^6-(2-methoxy-4-(methylsulfonyl)phenyl)-1H-pyrrolo[2,3-b]pyridine-4,6-diamine], the IC50 was 301 to 1000 nM against human GST-CLK1 (129-end), under 100 nM on LRRK2 (G2019S), 301 to 1000 nM in assay [1] and under 100 nM at LRRK2.

`CCCNc1cc(Nc2ccc(S(C)(=O)=O)cc2OC)nc2[nH]ccc12` [Example 27, N^6-(2-methoxy-4-(methylsulfonyl)phenyl)-N^4-propyl-1H-pyrrolo[2,3-b]pyridine-4,6-diamine]: the half-inhibitory concentration (IC50) is 301 to 1000 nM against human GST-CLK1 (129-end), under 100 nM on LRRK2 (G2019S), 301 to 1000 nM in assay [1] and under 100 nM against LRRK2.

Consider `CNc1cc(Nc2ccc(S(C)(=N)=O)cc2OC)nc2[nH]cc(C(F)(F)F)c12` (stereo not drawn) [Example 103, N^6-(2-methoxy-4-(s-methylsulfonylimidoyl)phenyl)-N^4-methyl-3-(trifluoromethyl)-1H-pyrrolo[2,3-b]pyridine-4,6-diamine], for which the IC50 against human GST-CLK1 (129-end) is 301 to 1000 nM; in assay [1] it was 301 to 1000 nM; against LRRK2, 101 to 300 nM.

For `CNc1cc(Nc2ccc(P3(=O)CCN(C4COC4)CC3)cc2OC)nc2[nH]cc(C#N)c12` [Example 142, 6-((2-methoxy-4-(1-(oxetan-3-yl)-4-oxido-1,4-azaphosphinan-4-yl)phenyl)amino)-4-(methylamino)-1H-pyrrolo[2,3-b]pyridine-3-carbonitrile], the IC50 at human GST-CLK1 (129-end) was 301 to 1000 nM; in assay [1] it was 101 to 300 nM; at LRRK2, under 100 nM.

In the case of `CCNc1cc(Nc2ccc(P3(=O)CCN(C4COC4)CC3)cc2OC)nc2[nH]cc(C#N)c12` [Example 143, 4-(ethylamino)-6-((2-methoxy-4-(1-(oxetan-3-yl)-4-oxido-1,4-azaphosphinan-4-yl)phenyl)amino)-1H-pyrrolo[2,3-b]pyridine-3-carbonitrile], the figures for the IC50 (at human GST-CLK1 (129-end); in assay [1]; against LRRK2) were 101 to 300 nM, 301 to 1000 nM and under 100 nM, respectively.

For `COCCNc1cc(Nc2ccc(P3(=O)CCN(C4COC4)CC3)cc2OC)nc2[nH]cc(C#N)c12` [Example 144, 6-((2-methoxy-4-(1-(oxetan-3-yl)-4-oxido-1,4-azaphosphinan-4-yl)phenyl)amino)-4-((2-methoxyethyl)amino)-1H-pyrrolo[2,3-b]pyridine-3-carbonitrile], the IC50 against human GST-CLK1 (129-end) is 101 to 300 nM; in assay [1], 301 to 1000 nM; on LRRK2, under 100 nM.

Regarding `CCNc1cc(Nc2ccc(P3(=O)CCN(C(C)=O)CC3)cc2OC)nc2[nH]cc(C#N)c12` [Example 145, 6-((4-(1-acetyl-4-oxido-1,4-azaphosphinan-4-yl)-2-methoxyphenyl)amino)-4-(ethylamino)-1H-pyrrolo[2,3-b]pyridine-3-carbonitrile], the figures for the IC50 (against human GST-CLK1 (129-end); in assay [1]; at LRRK2) were 301 to 1000 nM, 101 to 300 nM and under 100 nM, respectively.

In the case of `CCNc1cc(Nc2ccc(P3(=O)CCN(C4CC4)CC3)cc2OC)nc2[nH]cc(C#N)c12` [Example 147, 6-((4-(1-cyclopropyl-4-oxido-1,4-azaphosphinan-4-yl)-2-methoxyphenyl)amino)-4-(ethylamino)-1H-pyrrolo[2,3-b]pyridine-3-carbonitrile], the IC50 was 301 to 1000 nM at human GST-CLK1 (129-end), under 100 nM in assay [1] and under 100 nM against LRRK2.

For the compound `COC[C@@H](C)Nc1cc(Nc2ccc(C(=O)N3CCOCC3)c3c2OCCO3)nc2[nH]cc(C(F)(F)F)c12` [Example 159, (R)-(8-((4-((1-methoxypropan-2-yl)amino)-3-(trifluoromethyl)-1H-pyrrolo[2,3-b]pyridin-6-yl)amino)-2,3-dihydrobenzo [b] [1,4]dioxin-5-yl)(morpholino) methanone], the IC50 against human GST-CLK1 (129-end) was under 100 nM; in assay [1], 101 to 300 nM; on LRRK2, under 100 nM.

With `CN(C)CCNc1cc(Nc2ccc(C(=O)N3CCOCC3)c3c2OCCO3)nc2[nH]cc(C(F)(F)F)c12` [Example 171, (8-((4-((2-(dimethylamino)ethyl)amino)-3-(trifluoromethyl)-1H-pyrrolo[2,3-b]pyridin-6-yl)amino)-2,3-dihydrobenzo [b] [1,4]dioxin-5-yl)(morpholino) methanone], the figures for the IC50 (at human GST-CLK1 (129-end); in assay [1]; against LRRK2) were 301 to 1000 nM, 301 to 1000 nM and under 100 nM, respectively.

On to `CN(C)CCNc1cc(Nc2ccc(C(=O)N3CCC(N4CCOCC4)CC3)c3c2OCCO3)nc2[nH]cc(C(F)(F)F)c12` [Example 172, (8-((4-((2-(dimethylamino)ethyl)amino)-3-(trifluoromethyl)-1H-pyrrolo[2,3-b]pyridin-6-yl)amino)-2,3-dihydrobenzo[b] [1,4]dioxin-5-yl)(4-morpholinopiperidin-1-yl)methanone], for which the IC50 at human GST-CLK1 (129-end) is 101 to 300 nM; in assay [1] it was 301 to 1000 nM; against LRRK2, under 100 nM.

Turning to `CCCNc1cc(Nc2ccc(C(=O)N3CCOCC3)c3c2OCCO3)nc2[nH]cc(C(F)(F)F)c12` [Example 174, morpholino(8-((4-(propylamino)-3-(trifluoromethyl)-1H-pyrrolo[2,3-b]pyridin-6-yl)amino)-2,3-dihydrobenzo[b] [1,4]dioxin-5-yl)methanone], the IC50 against human GST-CLK1 (129-end) lay in the range of 301 to 1000 nM; in assay [1], 301 to 1000 nM; against LRRK2, 101 to 300 nM.

In the case of `COc1cc(S(C)(=O)=O)ccc1Nc1cc(NC2CCC2)c2c(C(F)(F)F)c[nH]c2n1` [Example 204, N^4-cyclobutyl-N^6-(2-methoxy-4-(methylsulfonyl)phenyl)-3-(trifluoromethyl)-1H-pyrrolo[2,3-b]pyridine-4,6-diamine], the IC50 (at human GST-CLK1 (129-end); in assay [1]; against LRRK2) was 301 to 1000 nM throughout.

As to `CCNc1cc(Nc2ccc(P3(=O)CCN(CC)CC3)cc2OC)nc2[nH]cc(C(F)(F)F)c12` [Example 210, 1-ethyl-4-(4-((4-(ethylamino)-3-(trifluoromethyl)-1H-pyrrolo[2,3-b]pyridin-6-yl)amino)-3-methoxyphenyl)-1,4-azaphosphinane 4-oxide], the IC50 (at human GST-CLK1 (129-end); in assay [1]; against LRRK2) was under 100 nM throughout.

For `COc1cc(P2(=O)CCN(C3CC3)CC2)ccc1Nc1cc(NC2CC2)c2c(C(F)(F)F)c[nH]c2n1` [Example 211, 1-cyclopropyl-4-(4-((4-(cyclopropylamino)-3-(trifluoromethyl)-1H-pyrrolo[2,3-b]pyridin-6-yl)amino)-3-methoxyphenyl)-1,4-azaphosphinane 4-oxide], the IC50 was 301 to 1000 nM against human GST-CLK1 (129-end), 301 to 1000 nM in assay [1] and under 100 nM on LRRK2.

Regarding `COc1cc(P2(=O)CCN(C3CC3)CC2)ccc1Nc1cc(C2CC2)c2c(C(F)(F)F)c[nH]c2n1` [Example 218, 1-cyclopropyl-4-(4-((4-cyclopropyl-3-(trifluoromethyl)-1H-pyrrolo[2,3-b]pyridin-6-yl)amino)-3-methoxyphenyl)-1,4-azaphosphinane 4-oxide], the IC50 was 301 to 1000 nM on human GST-CLK1 (129-end), 301 to 1000 nM in assay [1] and under 100 nM against LRRK2.

Turning to `CCOc1cc(Nc2ccc(C(=O)N3CCOCC3)c3c2OCCO3)nc2[nH]cc(C(F)(F)F)c12` [Example 231, (8-((4-ethoxy-3-(trifluoromethyl)-1H-pyrrolo[2,3-b]pyridin-6-yl)amino)-2,3-dihydrobenzo[b] [1,4]dioxin-5-yl)(morpholino) methanone], the 50% inhibitory concentration (IC50) at human GST-CLK1 (129-end) was 301 to 1000 nM; in assay [1] it was 301 to 1000 nM; at LRRK2, under 100 nM.

The values above are taken from US12240844B2 (Voronoi, Inc., priority 2019, dated 2025).
